From PubChem BioAssay (NCI)
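Growth conditions: 96-well plates. Treatment: test compound, 48 hours, 5 concentrations. Analysis: linear interpolation between bracketing concentrations; unreached endpoints set to highest concentration. At the GI50, growth is halved. TGI: concentration producing complete growth inhibition.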

Experiments:
Experiment in all cases: DTP human tumour cell line panel, 48 h
A549 NSCLC = tested on: A549 NSCLC
HCT-116 colon = tested on: HCT-116 colon
HCT-15 colon = tested on: HCT-15 colon
IGROV1 ovarian = tested on: IGROV1 ovarian
MOLT-4 leukemia = tested on: MOLT-4 leukemia
OVCAR-3 ovarian = tested on: OVCAR-3 ovarian
OVCAR-4 ovarian = tested on: OVCAR-4 ovarian
RPMI-8226 leukemia = tested on: RPMI-8226 leukemia
RXF 393 renal = tested on: RXF 393 renal
SF-539 CNS = tested on: SF-539 CNS
U251 CNS = tested on: U251 CNS

SMILES	TGI (A549 NSCLC) [µM]	TGI (HCT-116 colon) [µM]	TGI (HCT-15 colon) [µM]	TGI (IGROV1 ovarian) [µM]	TGI (MOLT-4 leukemia) [µM]	TGI (OVCAR-3 ovarian) [µM]	TGI (OVCAR-4 ovarian) [µM]	TGI (RPMI-8226 leukemia) [µM]	TGI (RXF 393 renal) [µM]	TGI (SF-539 CNS) [µM]	TGI (U251 CNS) [µM]	GI50 (MOLT-4 leukemia) [µM]	GI50 (A549 NSCLC) [µM]	GI50 (HCT-15 colon) [µM]	GI50 (IGROV1 ovarian) [µM]	GI50 (OVCAR-4 ovarian) [µM]	GI50 (RPMI-8226 leukemia) [µM]	GI50 (RXF 393 renal) [µM]	GI50 (U251 CNS) [µM]
OCCNCCN1CCN(CCCN2c3ccccc3Sc3ccc(C(F)(F)F)cc32)CC1	48.6	31.7	37.3	> 100	> 100	40.3	48.8	> 100	47.5	34.5	35.8	–	–	–	–	–	–	–	–
CC(=O)Oc1cc2c(cc1OC(C)=O)OCC(c1ccccc1)C2 (stereo not given)	39.9	57.4	56.4	74.1	26.1	58.9	55.4	54.5	30	48.7	29.5	–	–	–	–	–	–	–	–
CCCNC(=O)C(C)C1CCC2(C)C=CC(=O)C(C)=C2C1O (stereo not given)	> 100	> 100	> 100	> 100	> 100	> 100	> 100	> 100	> 100	> 100	> 100	–	–	–	–	–	–	–	–
N#C[C@H](OC1OC(COC2OC(CO)C(O)C(O)C2O)C(O)C(O)C1O)c1ccccc1 (stereo not given in full)	> 250	> 250	> 250	> 250	> 141	> 250	> 250	> 250	> 250	> 250	> 250	> 141	–	–	–	–	–	–	–
CN(C)CCCN1c2ccccc2Sc2ccc3ccccc3c21	26.6	22.9	19.2	23.4	10.1	21.7	17.8	7.45	3.92	30.9	20	–	–	–	–	–	–	–	–
O=C(CCl)NNC1=Nc2ccc(Cl)cc2SC1	26.2	3.2	3.97	3.58	2.86	3.28	5.63	5.01	3.44	3.77	4.28	–	–	–	–	–	–	–	–
O=C1OC2(CC1C1(O)C3CC4CC(C3)CC1C4)C1CC3CC(C1)CC2C3 (stereo not given)	> 100	> 100	> 100	> 100	> 100	> 100	76.6	–	> 100	> 100	–	–	–	–	–	–	–	–	–
O=C(O)c1cc2c(ncc3c(=O)n(-c4ccccc4)[nH]c32)s1	> 100	> 100	> 100	> 100	> 100	> 100	> 100	> 100	> 100	> 100	> 100	–	–	–	–	–	–	–	–
Cc1ccc(C2OC(COCc3ccc(Cl)cc3)C(OCc3ccc(Cl)cc3)C2O)cc1 (stereo not given)	30.1	> 100	> 100	35.5	> 100	27.5	40.9	81.2	10.8	36.2	34.2	–	–	–	–	–	–	–	–
CCCc1c(-c2ccccc2)[nH]c2ccccc2c1=O	–	72.8	> 100	> 100	> 100	> 100	> 100	> 100	> 100	> 100	> 100	–	–	–	–	–	–	–	–
Cn1c(=O)c2[nH]c(CCNC(=O)c3ccccc3)nc2n(C)c1=O	> 100	> 100	> 100	> 100	> 100	> 100	> 100	–	> 100	–	> 100	–	–	–	–	–	–	–	–
CCN(CC)c1ccc2cc(C(=O)Nc3ccc4[nH]c(C(=O)N5C[C@@H](CCl)c6c5cc(OC(=O)Nc5ccccc5)c5[nH]cc(C)c65)cc4c3)oc2c1	> 1000	378	> 1000	> 1000	> 1000	> 1000	> 1000	> 1000	–	796	235	294	147	539	914	428	681	202	92.7
COc1nc(=O)n(COC(CO)CN2C(=O)c3ccccc3C2=O)cc1Cc1cccc(OCc2ccccc2)c1 (stereo not given)	75.8	> 100	> 100	58.8	49.4	58.9	57.8	42.3	–	34.2	51.8	–	–	–	–	–	–	–	–
O=c1ssc(=Nc2ccccc2)n1-c1ccccc1	> 100	–	35	–	> 100	53.1	33.2	57.5	–	> 100	50	–	–	–	–	–	–	–	–
O=C(Nc1nc2ccc([N+](=O)[O-])cc2s1)C(=O)C(C(=O)c1ccccc1F)C1OC(=O)c2ccccc21 (stereo not given)	> 100	> 100	> 100	> 100	> 100	–	> 100	70.6	–	48.3	41.3	–	–	–	–	–	–	–	–
Nc1ccn(C2C=C(CO)C(O)C2O)c(=O)c1 (stereo not given)	> 625	> 625	> 625	> 625	–	> 625	> 625	> 625	–	> 625	–	–	–	–	–	–	–	–	–
